Measurements published in article PMC12736563, “NMR Unveils Activity Mechanism of Linear Spider Venom Peptide Fragments Selected by Neural Networks Against Staphylococci Including MRSA” (Pharmaceutics, 2025).
In brackets after ≈: the same amount, converted by molar mass. Entries after “also recorded” stand apart in the source; their conditions may differ. Read-outs that look alike come from different tables or passages of the source. Ends that are not written are not given here.

B1: Peptide IX (N-terminal 13-residue fragment of Lycosin 9i) (Lycosa hispanica) (peptide)
chain: IWLSLMKFAGKHL

Legend:
[1] = test system: S. epidermidis ATCC 14990; test: microbe, parasite or virus in culture; format: cell-based, Staphylococcus epidermidis; settings: ~1 × 10^5 cells/mL, starting 200 μg/mL
Procedure: (§1) For antimicrobial activity determination, Gram-positive strains (Staphylococcus aureus 209P, ATCC 29213, ATCC 25923, ATCC 43300 [MRSA], S. epidermidis ATCC 14990) were used. Experiments were conducted at bacterial concentrations of (0.5–1) × 10^5 cells/mL. […] Briefly, overnight cultures in Mueller-Hinton broth (MHB, HiMedia, Mumbai, Maharashtra, India) were diluted 1:100 into fresh MHB and incubated at 37 °C for 3 h. Cultures were then adjusted to ~1 × 10^5 cells/mL (by OD600) and used as an inoculate. Peptide stocks (10 mg/mL in water) were prepared in MHB to achieve a starting concentration of 200 μg/mL and subsequently diluted twofold.

[2] = test system: S. aureus ATCC 43300 (MRSA); test: microbe, parasite or virus in culture; format: cell-based, Staphylococcus aureus
Procedure: as §1

[3] = test system: S. aureus ATCC 29213 (MSSA); test: microbe, parasite or virus in culture; format: cell-based, Staphylococcus aureus; settings: two-fold serial dilution in MHB, ~1 × 10^5 cells/mL, starting 200 μg/mL
Procedure: as §1

S. aureus ATCC 25923 = test: microbe, parasite or virus in culture; format: cell-based, Staphylococcus aureus; settings: ~1 × 10^5 cells/mL, starting 200 μg/mL
Procedure: as §1

E. coli, lptD = test: microbe, parasite or virus in culture; format: cell-based
E. coli, ΔtolC = test: microbe, parasite or virus in culture; format: cell-based
[4] = Solubility in water (statement); format: physicochemical; settings: aqueous solution; NMR samples 0.2–1.0 mM
human red blood cells = test: Hemolytic activity; format: cell-based; settings: for Hemolysis (%): fresh human capillary blood, two independent experiments; for Hemolytic activity (in words): human red blood cells, up to 100 μM
Procedure: Hemolytic activity was assessed using fresh capillary blood from a human volunteer, as described in [28]. Each peptide’s hemolytic activity was tested in two independent experiments.

E. coli, ATCC 25922 = test: microbe, parasite or virus in culture; format: cell-based
[5] = pKa of His12 side chain by NMR pH titration; format: physicochemical
Procedure: NMR experiments in aqueous and micellar solutions were performed using samples containing 0.2–1.0 mM of peptide IX in 5% D2O at pH of 4.5. To model a membrane environment, 1-palmitoyl-2-hydroxy-sn-glycero-3-phospho-(1′-rac-glycerol) (LPPG, 16:0 Lyso PG, Avanti, Alabaster, AL, USA) was added stepwise to the aqueous peptide IX sample using a concentrated stock solution until a detergent-to-peptide (D:P) molar ratio of 140:1 was achieved. The NMR spectra were acquired on a Bruker Avance III 800 MHz spectrometer (Karlsruhe, Germany) equipped with a room-temperature triple-resonance (^1H, ^13C, ^15N) probe. Almost complete ^1H, ^13C, and ^15N resonance assignments for peptide IX in aqueous solution and LPPG micelles were obtained via a combination of 2D ^1H-TOCSY (τm = 60 ms), ^1H-NOESY (τm = 150 ms) and natural abundance ^13C-HSQC and ^15N-HSQC spectra measured at 5 °C and 45 °C, respectively, using the CARA 1.9.1.7 software (http://cara.nmr.ch/doku.php/Home (accessed on 12 December 2024)). […] The temperature gradients of amide protons (∆δ^1H^N/∆T) were measured from a series of 2D TOCSY spectra in water and 2D NOESY spectra in LPPG acquired in the temperature range of 15–45 °C. The pH-dependences of the ^1H^N and ^1H^δ2 His12 chemical shifts were measured in the pH range 2–9 from a series of 2D TOCSY spectra in water at 30 °C and 2D NOESY spectra in LPPG micelles at 45 °C. […]

S. aureus 209P = test: MIC, two-fold serial dilution in Mueller-Hinton broth; format: cell-based, Staphylococcus aureus; settings: conditions identical to those of Figure 2
Procedure: as §1
The mechanism was investigated using the S. aureus 209P strain.

S. aureus 209P cells = test: Confocal microscopy of plasma membrane permeability to BCECF and PI; format: cell-based, Staphylococcus aureus; settings: 25 µM peptide, 15 min, Mueller–Hinton broth, CLSM
Procedure: Confocal laser scanning microscopy (CLSM) measurements were performed with an SP2 confocal inverted microscope (Leica Microsystems GmbH, Wetzlar, Germany) using the water-immersion 63×, 1.2 NA HCX PL APO objective. A typical voxel size was 0.15 × 0.15 × 0.9 μm. Excitation wavelengths were 561 nm for propidium iodide (PI) and 488 nm for 2′,7′-Bis-(2-carboxyethyl)-5-(and-6)-carboxyfluorescein (BCECF) (Sigma-Aldrich, MO, USA). Laser power was 3–10 μW the sample. Fluorescence was detected in the 500–550 and 650–700 nm ranges for BCECF and PI, respectively. S. aureus 209P cells were preincubated with acetoxymethyl ester of BCECF (10 μM) in Hank’s balanced salt solution for 30 min at 37 °C, exposed to PI (15 μM) and peptide XIII (25 μM) for 15 min in Mueller–Hinton broth, centrifuged gently in order to concentrate the cells (1600× g, 5 min, 20 °C), and examined by CLSM. Control cells were subjected to the same procedures but without addition of the peptide.

[6] = molecular target: His12 (position 12, KFAGKHL----); test: NMR
[7] = two-fold serial dilution in MHB, values in Figure 2
[8] = S. aureus ATCC 43300 (MRSA), two-fold serial dilution in MHB, ~1 × 10^5 cells/mL, starting 200 μg/mL, Figure 2
[9] = two-fold serial dilution in MHB, Figure 2

Row | Molecule | MIC [1, 7] [µg/mL] | MIC [2, 8] [µg/mL] | MIC ([3]; Figure 2) [µg/mL] | MIC (S. aureus ATCC 25923; [9]) [µg/mL] | also measured
1 | ILADLIAKLKVRAA-NH2 [V] | > 200.00 | > 200.00 | > 200.00 | > 200.00 | 
2 | CCn1cc(C(=O)O)c(=O)c2ccc(C)nc21 [Nalidixic acid, reference compound] |  |  |  |  | MIC (E. coli, lptD; Escherichia coli): 1.56 µg/mL (≈ 6.72 µM); MIC (E. coli, ΔtolC; Escherichia coli): 1.56 µg/mL (≈ 6.72 µM)
3 | IWLSLMKFAGKHL-NH2 [IX] | 12.50 | 25.00 | 25.00 | 25.00 | solubility in water (in words) [4]: water-soluble; Hemolysis (%) (human red blood cells; 25 μM peptide): 0%; Hemolysis (%) (human red blood cells; 50 μM peptide): 14%; Hemolysis (%) (human red blood cells; 100 μM peptide): 100%; MIC (E. coli, lptD; E. coli, lptD): 50 µg/mL; MIC (E. coli, ATCC 25922): >200 µg/mL; pKa of His12 side chain ([5]; LPPG micelles, D:P 140:1, 2D NOESY at 45 °C): 7.86 ± 0.24; pKa of His12 side chain ([5]; aqueous solution, 5% D2O, 2D TOCSY at 30 °C, pH range of 3–8): 6.02 ± 0.05; MIC (E. coli, ΔtolC; E. coli, ΔtolC): 200 µg/mL
4 | AIWSSAMQFFIKHLKK [III] | > 200.00 | > 200.00 | > 200.00 | > 200.00 | 
5 | KFAGKHLAKH-NH2 [XII] | > 200.00 | > 200.00 | > 200.00 | > 200.00 | 
6 | GWMKALKEHVEKLNKTGKLK [I] | > 200.00 | > 200.00 | > 200.00 | > 200.00 | 
7 | LSLMKFAGKHLAKHQL [VII] | 25.00 | > 200.00 | > 200.00 | > 200.00 | MIC (E. coli, lptD; E. coli, lptD): 12.5 µg/mL; MIC (E. coli, ATCC 25922): >200 µg/mL; MIC (E. coli, ΔtolC; E. coli, ΔtolC): >200 µg/mL
8 | IWLSLMKFAGKHL [X] | > 200.00 | > 200.00 | > 200.00 | > 200.00 | 
9 | FMKRLISKGKIGKEKLVAF [II] | > 200.00 | > 200.00 | > 200.00 | > 200.00 | 
10 | IIWLPVLKFLASHV-NH2 [XIV] | 6.25 | 12.50 | 12.50 | 25.00 | Hemolysis (%) (human red blood cells; 25 μM peptide): 0%; Hemolysis (%) (human red blood cells; 50 μM peptide): 60%; Hemolysis (%) (human red blood cells; 100 μM peptide): 100%; MIC (E. coli, lptD; E. coli, lptD): 100 µg/mL; MIC (E. coli, ATCC 25922): 200 µg/mL; MIC (E. coli, ΔtolC; E. coli, ΔtolC): >200 µg/mL
11 | LMKFAGKHLAKH-NH2 [XI] | > 200.00 | > 200.00 | > 200.00 | > 200.00 | 
12 | IWWTAVKFFGKQL-NH2 [XV, 13-residue fragment of Lycosin 9o from Lycosa hispanica; negative control in hemolysis] | > 200.00 | > 200.00 | > 200.00 | > 200.00 | Hemolysis (%) (human red blood cells; 25 μM peptide): 0%; Hemolysis (%) (human red blood cells; 50 μM peptide): 0%; Hemolysis (%) (human red blood cells; 100 μM peptide): 0%; Hemolytic activity (in words) (human red blood cells): lack of hemolytic activity
13 | CN[C@H](CC(C)C)C(=O)N[C@H]1C(=O)N[C@@H](CC(N)=O)C(=O)N[C@H]2C(=O)N[C@H]3C(=O)N[C@H](C(=O)N[C@H](C(=O)O)c4cc(O)cc(O)c4-c4cc3ccc4O)[C@H](O)c3ccc(c(Cl)c3)Oc3cc2cc(c3O[C@@H]2O[C@H](CO)[C@@H](O)[C@H](O)[C@H]2O[C@H]2C[C@](C)(N)[C@H](O)[C@H](C)O2)Oc2ccc(cc2Cl)[C@H]1O [vancomycin, reference compound] |  |  |  |  | MIC ([1]; Staphylococcus epidermidis, ATCC14990, two-fold serial dilution in MHB, values in Figure 2, read-out: MIC): 0.78 µg/mL (≈ 0.538 µM); MIC ([2]; Staphylococcus aureus): 1.56 µg/mL (≈ 1.08 µM); MIC ([3]; Staphylococcus aureus, Figure 2, read-out: MIC): 0.78 µg/mL (≈ 0.538 µM); MIC (S. aureus ATCC 25923; Staphylococcus aureus, ATCC25923, two-fold serial dilution in MHB, Figure 2, read-out: MIC): 3.12 µg/mL (≈ 2.15 µM)
14 | LSLMKFAGKHLAKH-NH2 [VIII] | > 200.00 | > 200.00 | > 200.00 | > 200.00 | 
15 | CC1(C)S[C@@H]2[C@H](NC(=O)[C@H](N)c3ccccc3)C(=O)N2[C@H]1C(=O)O [Ampicillin, reference compound] |  |  |  |  | MIC (E. coli, ATCC 25922; Escherichia coli, ATCC25922, read-out: MIC): 3.12 µg/mL (≈ 8.94 µM)
16 | SLMKFAGKHLAKHQLSKMG-NH2 [VI] | > 200.00 | > 200.00 | > 200.00 | > 200.00 | 
17 | FWFKALKSVAKFIA-NH2 [XIII] | 6.25 | 6.25 | 3.12 | 6.25 | MIC (S. aureus 209P): 6.25 µg/mL; Hemolysis (%) (human red blood cells; 25 μM peptide): 0%; Hemolysis (%) (human red blood cells; 50 μM peptide): 0%; Hemolysis (%) (human red blood cells; 100 μM peptide): 0%; Hemolytic activity (in words) (human red blood cells): minimal hemolytic activity; also recorded: lack of hemolysis; MIC (E. coli, lptD; E. coli, lptD): 100 µg/mL; MIC (E. coli, ATCC 25922): 50 µg/mL; entry of propidium iodide (PI) into cells (S. aureus 209P cells): PI penetrates into cells; leakage of BCECF from cells (S. aureus 209P cells): is released from them; MIC (E. coli, ΔtolC; E. coli, ΔtolC): 50 µg/mL
18 | B1 |  |  |  |  | pKa ([6]; 30 °C, free peptide in aqueous solution, disordered (random coil), 1 mM): 6.02±0.05; pKa ([6]; 45 °C, bound to anionic LPPG micelles, structured (helix-like Ile1-Met6, α-helix Lys7-Leu13)): 7.89 ± 0.24
